Laboratory results: ChEMBL document CHEMBL1201862, “PubChem BioAssay data set” (2004)
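Dose response: 5 concentrations. Exposure: 48 h. Format: 96-well plates. Endpoint: linear interpolation; highest concentration if not reached. Abbreviation: GI50, concentration required for 50% inhibition of growth.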 Active and inactive are the calls of the source. Cut-off read from the data, not from the text of the source: active = GI50 up to about 1.1 µM and inactive = higher.

Experiments:
Experiment in all cases: NCI anticancer screen, dose series, 48 h
A498 = system: A498
ACHN = system: ACHN
CAKI-1 = system: CAKI-1
DU-145 = system: DU-145
HCC 2998 = system: HCC 2998
HT-29 = system: HT-29
Hs-578T = system: Hs-578T
K562 = system: K562
KM12 = system: KM12
MCF7 = system: MCF7
MDA-MB-231 = system: MDA-MB-231
MOLT-4 = system: MOLT-4
NCI-H226 = system: NCI-H226
NCI-H23 = system: NCI-H23
NCI/ADR-RES = system: NCI/ADR-RES
SK-MEL-2 = system: SK-MEL-2
SK-OV-3 = system: SK-OV-3
SN12C = system: SN12C
SNB-19 = system: SNB-19
UACC-257 = system: UACC-257

Structure (SMILES) | GI50 (A498) | GI50 (ACHN) | GI50 (CAKI-1) | GI50 (DU-145) | GI50 (HCC 2998) | GI50 (HT-29) | GI50 (Hs-578T) | GI50 (K562) | GI50 (KM12) | GI50 (MCF7) | GI50 (MDA-MB-231) | GI50 (MOLT-4) | GI50 (NCI-H226) | GI50 (NCI-H23) | GI50 (NCI/ADR-RES) | GI50 (SK-MEL-2) | GI50 (SK-OV-3) | GI50 (SN12C) | GI50 (SNB-19) | GI50 (UACC-257)
CC(=O)OC(C)c1cc2c(s1)C(=O)c1sccc1C2=O (stereo not given) | 2.33 µM (inactive) | 1.45 µM (inactive) | 3.14 µM (inactive) | 0.416 µM (active) | 1.99 µM (inactive) | 1.96 µM (inactive) | 0.807 µM (active) | 2.69 µM (inactive) | 1.75 µM (inactive) | 0.995 µM (active) | 1.34 µM (inactive) | 2.7 µM (inactive) | 2.04 µM (inactive) | 0.221 µM (active) | 1.71 µM (inactive) | 0.504 µM (active) | 2.95 µM (inactive) | 0.542 µM (active) | 1.29 µM (inactive) | 0.215 µM (active)
Cc1ccc(C)c(C2NC(=O)c3ccccc3N2)c1 (stereo not given) | 3.62 µM (inactive) | 4.83 µM (inactive) | 3.27 µM (inactive) | 2.56 µM (inactive) | 2.8 µM (inactive) | 0.445 µM (active) | 1.09 µM (active) | 0.274 µM (active) | 2.99 µM (inactive) | 0.454 µM (active) | 10.3 µM (inactive) | 0.506 µM (active) | 2.95 µM (inactive) | 6.04 µM (inactive) | 0.7 µM (active) | 1.29 µM (inactive) | 2.02 µM (inactive) | 4.69 µM (inactive) | 2.1 µM (inactive) | 12 µM (inactive)
NCCCN(CCCCN(CCCN)C(=O)OCc1ccccc1)C(=O)OCc1ccccc1 | > 100 µM (inactive) | > 100 µM (inactive) | > 100 µM (inactive) | > 100 µM (inactive) | 50 µM (inactive) | > 100 µM (inactive) | 20.6 µM (inactive) | 37.9 µM (inactive) | > 100 µM (inactive) | 30.9 µM (inactive) | 35.6 µM (inactive) | 47.9 µM (inactive) | > 100 µM (inactive) | > 100 µM (inactive) | > 100 µM (inactive) | > 100 µM (inactive) | > 100 µM (inactive) | > 100 µM (inactive) | 81.8 µM (inactive) | 93.5 µM (inactive)
CC(=O)Nc1ccccc1S(=O)(=O)c1c(-c2c(C)c(Cl)c(C)c(Cl)c2C)noc1C | 57 µM (inactive) | 55.2 µM (inactive) | 28.9 µM (inactive) | 88.3 µM (inactive) | 90.4 µM (inactive) | 55.2 µM (inactive) | 28.6 µM (inactive) | 33.3 µM (inactive) | > 100 µM (inactive) | 35.1 µM (inactive) | 23.7 µM (inactive) | 24.2 µM (inactive) | 27 µM (inactive) | 67.6 µM (inactive) | 41.2 µM (inactive) | > 100 µM (inactive) | 31.7 µM (inactive) | 30.3 µM (inactive) | 26 µM (inactive) | 60.7 µM (inactive)
COc1cc(Nc2cc(Cl)cc(Cl)c2)nc(N)n1 | 21.9 µM (inactive) | 18.9 µM (inactive) | 20.4 µM (inactive) | 18.8 µM (inactive) | 16.6 µM (inactive) | 17.8 µM (inactive) | 26.2 µM (inactive) | 30.7 µM (inactive) | 17.1 µM (inactive) | 27.2 µM (inactive) | 18.9 µM (inactive) | 16.6 µM (inactive) | 19.4 µM (inactive) | 20.3 µM (inactive) | 20.5 µM (inactive) | 14.3 µM (inactive) | 27.5 µM (inactive) | 20.9 µM (inactive) | 22.9 µM (inactive) | 19.3 µM (inactive)
CC1=C(Br)C(=O)c2c(O)ccc(O)c2C1=O | 1.7 µM (inactive) | 0.869 µM (active) | 0.282 µM (active) | 1.52 µM (inactive) | 1.75 µM (inactive) | 0.336 µM (active) | 2.81 µM (inactive) | 0.133 µM (active) | 1.57 µM (inactive) | 0.182 µM (active) | 1.26 µM (inactive) | 0.0258 µM (active) | 2.67 µM (inactive) | 0.938 µM (active) | 0.555 µM (active) | 5.83 µM (inactive) | 1.85 µM (inactive) | 1.38 µM (inactive) | 1.72 µM (inactive) | 1.13 µM (inactive)
